Reference: PMC7117798 (Nature immunology, 2020)
“Also recorded” adds a separate entry of the source.

How the values were obtained:
[1] = tested on: CD4^+ T cell hybridomas with C3g7 APCs; assay: Antigen presentation assay; format: cell-based, mouse; details: for response of InsB:11–25-reactive CD4^+ T cell hybridoma clone 58: Extended Data Fig. 3
I-A^g7 = assay: Competitive binding assay; design: species or system mouse; details: n = 2 independent experiments
[2] = tested on: CD4^+ T cells from islets and pLN; format: cell-based; details: 8–10-week old female NOD mice; challenge with Ins1C:51–61 or Ins1C:51–61E and recall; compared with native Ins1C:51–61 or Ins1C:33–61; Fig. 3g
[3] = C3g7 APCs pulsed with epitope, Fig. 2c

CCN(CC)CCCC(C)Nc1ccnc2cc(Cl)ccc12 (centres unmarked) [chloroquine, reference compound]
effect on presentation of Ins1C:33–61 to a cognate CD4^+ T cell hybridoma ([1]; C3g7 APCs treated with 100 μM chloroquine at 37°C for 2 h in the presence of antigen, Extended Data Fig. 1d): did not affect the presentation

EALYLVCGE [InsB:13–21]
response of InsB:11–25-reactive CD4^+ T cell hybridoma clone 58 [1, 3]: did not recognize; also recorded: unreactive

LQTLALEVARE [Ins1C:51–61E]
fold higher binding affinity to I-A^g7 than Ins1C:51–61 (I-A^g7; competitive binding assay, Fig. 3e): ~ 3 fold
IL-2 and IFN-γ production by islet/pLN CD4^+ T cells [2]: substantially stronger responses

LYLVCGERG [InsB:15–23]
response of InsB:11–25-reactive CD4^+ T cell hybridoma clone 58 [1, 3]: responded

TLALEVARE [Ins1C:53–61E]
relative binding strength to I-A^g7 (in words) (I-A^g7; competitive binding assay on C3g7 cells): bound poorly

VEALYLVCG [InsB:12–20]
response of InsB:11–25-reactive CD4^+ T cell hybridoma clone 21 [1, 3]: cross-reacted
response of InsB:11–25-reactive CD4^+ T cell hybridoma clone 58 [1, 3]: did not recognize; also recorded: unreactive
